Experimental data reported in publication PMC10987521, “An all-in-one tetrazine reagent for cysteine-selective labeling and bioorthogonal activable prodrug construction” (Nature Communications, 2024).
pIC50: −log10 of the molar value.

Assays:
[1] = system: B16F10 cells; experiment: Cytotoxicity (CCK8, 48 h) of drugs, PDCs, activable-Drugs and TCO, B16F10; format: cell-based, Mouse; settings: Mus musculus, B16-F10; B16F10, 48 h, CCK8, n = 3; activable-Dox: RGD-Dox 2 h, then 200 μM TCO, 48 h in total
[2] = system: SKOV3 cells; experiment: Cytotoxicity (CCK8, 48 h) of drugs, PDCs, activable-Drugs and TCO, SKOV3; format: cell-based, Human; settings: Homo sapiens, SK-OV-3; SKOV3, 48 h, CCK8, n = 3; activable-Dox: RGD-Dox 2 h, then 200 μM TCO, 48 h in total
[3] = Body weight and organ histology in the B16F10 tumor model; format: in vivo, BALB/c nude mice
Protocol: (§1) The mice underwent four treatment courses on day 0, day 3, day 6, and day 9. Tumor size and body weight were measured every day. Tumor volume was calculated via the following formula: V = 1/2 × (minor axis) × (major axis)[2].
(§2) After 12 days, the mice were sacrificed and dissected to obtain tumor tissues and main organs, including heart, liver, spleen, lung, and kidney. Subsequently, all tissues were fixed in a 4% paraformaldehyde solution, routinely paraffin-embedded and sectioned, and then stained with hematoxylin and eosin, as well as using TdT-mediated dUTP nick-end labeling (TUNEL) for subsequent pathological analysis. TUNEL-positive cells appeared fluorescent green, representing the apoptosis of tumor cells (nuclei were fluorescent blue, stained with DAPI).

[4] = system: B16F10 cells; experiment: Comparison of cell uptake between RGD-Dox and Dox using flow cytometry; format: cell-based, Mouse
Protocol: (§3) B16F10 cells were cultured for 48 h. […]
(§4) 12.1 Calculation of the fluorescence coefficient (F c)
(§5) The Fc was the radio calculated
(§6) 12.2 Uptake calculation of the B16F10 cells […]
(§7) deviation were analyzed using Origin Pro 2015.
(§8) B16F10 cells, characterized by α vβ3
(§9) Following the incubation period, the
Subsequently, the cells were trypsinized and underwent three PBS rinses. […]

[5] = system: B16F10 melanoma tumor; experiment: In vivo anticancer efficacy, subcutaneous B16F10 melanoma tumor model; parameters: species or system BALB/c nude mice
Protocol: Tumor-bearing mice were established by subcutaneously injecting a suspension of 5 × 10^5 B16F10 cells per mouse into the front flank of each nude mouse. When tumor volume reached 50−70 mm^3, the animals were randomly divided into five groups (n = 5). The mice were administered different compounds suspended in PBS via the tail vein every 3 days for a total of four times.
as §1, §2
13. In vivo anticancer efficacy […]
13.2 Calculation of the tumor growth inhibition values (TGI)
Tumor growth inhibition values (TGI) were calculated using the following formula: TGI (%) = (1 − RTVtreatment/
RTVcontrol)*100. RTV refers to relative tumor volume, representing the ratio of the volume at the end of treatment to the
volume at the beginning of treatment. […]

[6] = system: U87 cells; experiment: Cytotoxicity (CCK8, 48 h) of drugs, PDCs, activable-Drugs and TCO, U87; format: cell-based, Human; settings: Homo sapiens, U-87 MG; U87, 48 h, CCK8, n = 3; activable-Dox: RGD-Dox 2 h, then 200 μM TCO, 48 h in total
[7] = system: B16F10, U87, SKOV3 and LX2 cells; experiment: Cytotoxicity (CCK8, 48 h), figures stated across several cell lines; format: cell-based; settings: read-out: IC50 values against all four cell lines
[8] = system: LX2 cells; experiment: Cytotoxicity (CCK8, 48 h) of drugs, PDCs, activable-Drugs and TCO, LX2; format: cell-based, Human; settings: Homo sapiens, LX-2; LX2 (αvβ3-negative), 48 h, CCK8, n = 3; activable-Dox: RGD-Dox 2 h, then 200 μM TCO
[9] = system: B16F10 cells; experiment: Cell uptake by fluorescence imaging, B16F10; format: cell-based, Mouse; settings: B16F10 and LX2 cells, 10 μM, 2 h
Protocol: as §3, §4, §5, §6, §7, §8, §9
Subsequently, the cells were trypsinized and underwent three PBS rinses.
12 .4 Cell uptake analysis by fluorescence imaging

[10] = Labeling reaction kinetics between tetrazine 1 and Cys; format: physicochemical; settings: 25 °C, PB (30% MeCN, 20 mM, pH 8.0), equal concentrations, UV-Vis 300 nm
Protocol: The second-order rate constant for the labeling reactions between tetrazine 1 and Cys was determined at 25 °C in PB (30% MeCN, 20 mM, pH 8.0) under second-order conditions using a 6000+ (Quawell) UV-Vis spectrophotometer. The concentrations of cysteine and tetrazine were identical. The specific difference in absorption wavelength (300 nm) between 1 and Cys-1 was measured over time. The second-order rate constant k2 was calculated from the slope of a plot of (1/c – 1/c0) versus time.
5. Competitive labeling reaction with other nucleophilic amino acids
For the competitive labeling experiment, 10 equiv. (2 mM) of N-Fmoc-Lys, N-Fmoc-Arg, Ser, Tyr, and 1.3 equiv. […] The resulting solution was maintained at 25 °C and monitored by LC –MS. […]
Each voTz analogue (1.1 equiv.) was added to a 0.25 mL vial containing solvent. […] The chromatogram peak areas of all relevant Cys -containing species were integrated, and the yiel d was determined using the following equation: Yield (%) = Iproduct/(Istarting + Iproduct + Ioxidation + Iside product) × 100, where Istarting, Iproduct, Ioxidation, and Iside product respectively represent the average ion counts of remaining starting material, product, oxidized starting material and any side product, if present 2. […]
DLS analyses and particle zeta potential values were determined using a Nano ZS ZEN 3690 instrument (Malvern […]

Structure (SMILES)	pIC50 [1]	pIC50 [2]	histology of heart, liver, spleen, lung, kidney ([3]; after 12 days)	body weight in words ([3]; four i.v. courses, 3.67 μmol·kg^−1, compared with PBS group)	Normalized uptake ([4]; normalized to Dox = 1, Data 1)	Normalized uptake ([4]; normalized to Dox = 1, Data 2)	Normalized uptake ([4]; normalized to Dox = 1, Data 3)	tumor growth inhibition values (TGI %) ([5]; Data 5) [%]	tumor growth inhibition value (TGI) ([5]; after four i.v. courses (days 0, 3, 6, 9), 3.67 μmol·kg^−1, n = 5, TGI = (1 − RTVtreatment/RTVcontrol)*100) [%]	tumor growth / inhibition in words ([5]; four i.v. courses, 3.67 μmol·kg^−1 (TCO-P4 36.7 μmol·kg^−1), n = 5)	pIC50 [6]	pIC50 [7]	pIC50 [8]	cellular uptake of free drug (imaging) [9]	second-order rate constant of the labeling reaction between 1 and Cys [10] [M⁻¹ s⁻¹]
COc1cccc2c1C(=O)c1c(O)c3c(c(O)c1C2=O)C[C@@](O)(C(=O)CO)C[C@@H]3O[C@H]1C[C@H](N)[C@H](O)[C@H](C)O1 [Dox, doxorubicin]	5.69	5.35	typical inflammatory injury	serious loss of body weight	1	1	1	46.63	59.4	slightly slowed the tumor growth	5.49	5.35 to 5.69	5.47	obvious uptake through nonspecific diffusion and internalization	–
C=Cc1nnc(-c2ccccc2)nn1 [compound 1, phenyl vinyltetrazine]	–	–	–	–	–	–	–	–	–	–	–	–	–	–	13 ± 0.8
